# Measured values: patent US10538535B2, “Antitumoral compounds” (priority 2017, dated 2020)
# Read-outs that look alike come from different tables or passages of the source.
# Tests used:
# [1] = MTD (Maximum Tolerated Dose) determination, single iv administration; assay type: in vivo; conditions: female, mouse, in vivo; mice; iv/SD
# Excerpt: (§1) Female CD-1 or Athymic Nude-Fox1 nu/nu mice (Envigo) were utilized for all experiments. […] Animals were acclimated for five days prior to being individually tattoo-identified. Animal protocols were reviewed and approved according to the regional Institutional Animal Care and Use Committees.
# (§2) Mice were randomly allocated into experimental groups and intravenously administered, once for the MTD (Maximum Tolerated Dose) determination or one administration a week during three consecutive weeks, for the MTMD (Maximum Tolerated Multiple Dose) determination study. The animals were administered with white formulation or with compound dissolved in the experimental formulation at different concentrations. The volume administered was always 10 mL/kg. Once administered, animals were monitored for clinical signs of systemic toxicity, changes in body weight and mortality up to 14 days after the administration.
# [2] = MTMD (Maximum Tolerated Multiple Dose) determination, iv weekly x3; assay type: in vivo; conditions: mice; iv/Q7dx3
# Excerpt: as §1, §2
# HT1080 tumors = assay: In vivo xenograft, human fibrosarcoma HT1080; conditions: iv weekly, 32 and ET-736 0.5 mg/Kg
# Experimental: (§3) Female athymic nu/nu mice (Harlan Laboratories Models, S. L. Barcelona, Spain or Envigo, Spain) were utilized for all experiments. Animal were housed in individually ventilated cages Sealsafe® Plus, Techniplast S.P.A.), up to ten per cage on a 12-hour light-dark cycle at 21-23° C. and 40-60% humidity. […] Animals were acclimated for at least 5 days prior to tumor implantation with a tumor cell suspension.
# HT1080 cells were maintained in vitro at 37° C. with 5% CO2 in Minimum Essential Medium Eagle (MEME) (Sigma-Aldrich, Co). Each animal was orthotopically implanted into gastroecnemius muscle by an intramuscular injection using a 26 G needle and a 1 cc syringe at 4-6 weeks of age, with 10×10^6 HT1080 cells, suspended in serum free medium, without antibiotics.
# (§4) Treatment tolerability was assessed by monitoring body weight evolution, clinical signs of systemic toxicity, as well as evidences of local damage in the injection site.
# In xenograft studies with HT1080 cell line: • Total diameter (tumor+leg) measurements were determined by using digital caliper (Fowler Sylvac, S235PAT).
# (§5) Treatments producing >20% lethality and/or 20% net body weight loss were considered toxic.
# Lewis lung carcinoma = conditions: cited from earlier work
# P388 lymphoma = conditions: cited from earlier work
# B16 melanoma = conditions: cited from earlier work
# Experimental for HGC27 tumors: as §3
# HGC27 cells were maintained in vitro at 37° C. with 5% CO2 in Iscove's Modified Dulbecco's Medium (Sigma Aldrich, Co). Culture cells were passage every 3 to 5 days on reaching confluence. Each animal was subcutaneously implanted (on the right flank using 26 G needle and a 1 cc syringe) at 4-6 weeks of age with 5×10^6 HGC-27 cells suspended in 0.05 mL of a solution consisting of 50% Matrigel® (Corning Incorporated Life Sciences), 50% medium without serum or antibiotics.
# as §4, §5
smiles,measurement,setting,value
COc1c(C)cc2c(c1O)[C@@H]1[C@@H]3[C@@H]4SC[C@]5(N[C@H](C)Cc6c5[nH]c5ccccc65)C(=O)OC[C@@H](c5c6c(c(C)c(OC(C)=O)c54)OCO6)N3[C@@H](O)[C@H](C2)N1C [C],Median Tumor Volume,"HGC27 tumors; iv, 3 mg/kg, 0 h",195.0 mm^3
same,Median Tumor Volume,"HGC27 tumors; iv, 3 mg/kg, 48 h",391.0 mm^3
same,Median Tumor Volume,"HGC27 tumors; iv, 3 mg/kg, 120 h",578.6 mm^3
same,Median Tumor Volume,"HGC27 tumors; iv, 3 mg/kg, 168 h",708.2 mm^3
same,Median Tumor Volume,"HGC27 tumors; iv, 3 mg/kg, 336 h",1496.8 mm^3
same,Median Tumor Volume,"HGC27 tumors; iv, 3 mg/kg, 384 h",1690.6 mm^3
same,Median Tumor Volume,"HGC27 tumors; iv, 3 mg/kg, 456 h",2004.0 mm^3
same,Median Tumor Volume,"HGC27 tumors; iv, 3 mg/kg, 504 h",1741.4 mm^3
same,Median Tumor Volume,"HGC27 tumors; iv, 3 mg/kg, 552 h",2056.4 mm^3
same,MTD at 14 days,[1],3 mg/kg
same,MTMD,[2],3.0 mg/kg
COc1c(C)cc2c(c1O)[C@@H]1[C@@H]3[C@@H]4SC[C@]5(NCCc6c5oc5ccccc65)C(=O)OC[C@@H](c5c6c(c(C)c(OC(C)=O)c54)OCO6)N3[C@@H](O)[C@H](C2)N1C [Compound 32],Median Tumor Volume,"HGC27 tumors; Day 0, HGC27 xenograft",194.8 mm^3
same,Median Tumor Volume,"HGC27 tumors; Day 2, HGC27 xenograft",386.3 mm^3
same,Median Tumor Volume,"HGC27 tumors; Day 5, HGC27 xenograft",551.3 mm^3
same,Median Tumor Volume,"HGC27 tumors; Day 7, HGC27 xenograft",579.2 mm^3
same,Median Tumor Volume,"HGC27 tumors; Day 9, HGC27 xenograft",665.8 mm^3
same,Median Tumor Volume,"HGC27 tumors; Day 12, HGC27 xenograft",701.1 mm^3
same,Median Tumor Volume,"HGC27 tumors; Day 14, HGC27 xenograft",814.5 mm^3
same,Median Tumor Volume,"HGC27 tumors; Day 16, HGC27 xenograft",959.9 mm^3
same,Median Tumor Volume,"HGC27 tumors; Day 19, HGC27 xenograft",1312.4 mm^3
same,Median Tumor Volume,"HGC27 tumors; Day 21, HGC27 xenograft",1626.8 mm^3
same,Median Tumor Volume,"HGC27 tumors; Day 23, HGC27 xenograft",1737.3 mm^3
same,Total diameter (tumor + leg),"HT1080 tumors; Table 60, Day 2",8.9 mm
same,Total diameter (tumor + leg),"HT1080 tumors; Table 60, Day 5",8.2 mm
same,Total diameter (tumor + leg),"HT1080 tumors; Table 60, Day 7",8.8 mm
same,Total diameter (tumor + leg),"HT1080 tumors; Table 60, Day 9",10.0 mm
same,Total diameter (tumor + leg),"HT1080 tumors; Table 60, Day 12",8.8 mm
same,Total diameter (tumor + leg),"HT1080 tumors; Table 60, Day 14",10.8 mm
same,Total diameter (tumor + leg),"HT1080 tumors; Table 60, Day 16",11.8 mm
same,Total diameter (tumor + leg),"HT1080 tumors; Table 60, Day 19",12.0 mm
same,Total diameter (tumor + leg),"HT1080 tumors; Table 60, Day 21",14.0 mm
same,Total diameter (tumor + leg),"HT1080 tumors; Table 60, Day 23",13.8 mm
same,Total diameter (tumor + leg),"HT1080 tumors; Table 60, Day 27",13.6 mm
same,Total diameter (tumor + leg),"HT1080 tumors; Table 60, Day 30",15.5 mm
same,Total diameter (tumor + leg),"HT1080 tumors; Table 60, Day 33",18.0 mm
same,MTD at 14 days,[1],0.5 mg/kg
same,MTMD,[2],0.5 mg/kg
COc1c(C)cc2c(c1O)[C@@H]1[C@@H]3[C@@H]4SC[C@]5(N[C@@H](C)Cc6c5[nH]c5ccccc65)C(=O)OC[C@@H](c5c6c(c(C)c(OC(C)=O)c54)OCO6)N3[C@@H](O)[C@H](C2)N1C [D],Median Tumor Volume,"HGC27 tumors; Table 28, Day 0, iv Days 0, 7, 14",157.4 mm^3
same,Median Tumor Volume,"HGC27 tumors; Table 28, Day 2, iv Days 0, 7, 14",327.6 mm^3
same,Median Tumor Volume,"HGC27 tumors; Table 28, Day 5, iv Days 0, 7, 14",439.6 mm^3
same,Median Tumor Volume,"HGC27 tumors; Table 28, Day 7, iv Days 0, 7, 14",418.7 mm^3
same,Median Tumor Volume,"HGC27 tumors; Table 28, Day 9, iv Days 0, 7, 14",567.9 mm^3
same,Median Tumor Volume,"HGC27 tumors; Table 28, Day 12, iv Days 0, 7, 14",537.0 mm^3
same,Median Tumor Volume,"HGC27 tumors; Table 28, Day 14, iv Days 0, 7, 14",654.6 mm^3
same,Median Tumor Volume,"HGC27 tumors; Table 28, Day 16, iv Days 0, 7, 14",672.4 mm^3
same,Median Tumor Volume,"HGC27 tumors; Table 28, Day 19, iv Days 0, 7, 14",843.0 mm^3
same,Median Tumor Volume,"HGC27 tumors; Table 28, Day 21, iv Days 0, 7, 14",842.7 mm^3
same,Median Tumor Volume,"HGC27 tumors; Table 28, Day 23, iv Days 0, 7, 14",963.7 mm^3
same,Median Tumor Volume,"HGC27 tumors; Table 28, Day 26, iv Days 0, 7, 14",1203.3 mm^3
same,Median Tumor Volume,"HGC27 tumors; Table 28, Day 28, iv Days 0, 7, 14",1589.7 mm^3
same,Median Tumor Volume,"HGC27 tumors; Table 28, Day 30, iv Days 0, 7, 14",1777.6 mm^3
same,Median Tumor Volume,"HGC27 tumors; Table 28, Day 33, iv Days 0, 7, 14",2146.2 mm^3
same,Median Tumor Volume,"HGC27 tumors; iv, 0.5 mg/kg, 0 h",194.0 mm^3
same,Median Tumor Volume,"HGC27 tumors; iv, 0.5 mg/kg, 48 h",324.2 mm^3
same,Median Tumor Volume,"HGC27 tumors; iv, 0.5 mg/kg, 120 h",561.6 mm^3
same,Median Tumor Volume,"HGC27 tumors; iv, 0.5 mg/kg, 168 h",504.2 mm^3
same,Median Tumor Volume,"HGC27 tumors; iv, 0.5 mg/kg, 336 h",1056.8 mm^3
same,Median Tumor Volume,"HGC27 tumors; iv, 0.5 mg/kg, 384 h",1440.2 mm^3
same,Median Tumor Volume,"HGC27 tumors; iv, 0.5 mg/kg, 456 h",1717.9 mm^3
same,Median Tumor Volume,"HGC27 tumors; iv, 0.5 mg/kg, 504 h",2043.4 mm^3
"COc1c(C)cc2c(c1O)[C@@H]1[C@@H]3[C@@H]4SC[C@]5(NCCc6c5[nH]c5ccccc65)C(=O)OC[C@@H](c5c6c(c(C)c(OC(C)=O)c54)OCO6)N3[C@@H](O)[C@H](C2)N1C [ET-736, Ecteinascidin 736]",protection of mice in vivo,Lewis lung carcinoma,protects mice in vivo at very low concentrations
same,Median Tumor Volume,"HGC27 tumors; Day 0, HGC27 xenograft",195.9 mm^3
same,Median Tumor Volume,"HGC27 tumors; Day 2, HGC27 xenograft",359.2 mm^3
same,Median Tumor Volume,"HGC27 tumors; Day 5, HGC27 xenograft",537.6 mm^3
same,Median Tumor Volume,"HGC27 tumors; Day 7, HGC27 xenograft",553.5 mm^3
same,Median Tumor Volume,"HGC27 tumors; Day 9, HGC27 xenograft",604.7 mm^3
same,Median Tumor Volume,"HGC27 tumors; Day 12, HGC27 xenograft",627.4 mm^3
same,Median Tumor Volume,"HGC27 tumors; Day 14, HGC27 xenograft",648.0 mm^3
same,Median Tumor Volume,"HGC27 tumors; Day 16, HGC27 xenograft",687.6 mm^3
same,Median Tumor Volume,"HGC27 tumors; Day 19, HGC27 xenograft",760.0 mm^3
same,Median Tumor Volume,"HGC27 tumors; Day 21, HGC27 xenograft",792.4 mm^3
same,Median Tumor Volume,"HGC27 tumors; Day 23, HGC27 xenograft",818.9 mm^3
same,Median Tumor Volume,"HGC27 tumors; Day 26, HGC27 xenograft",1026.1 mm^3
same,Median Tumor Volume,"HGC27 tumors; Day 28, HGC27 xenograft",1354.9 mm^3
same,protection of mice in vivo,P388 lymphoma,protects mice in vivo at very low concentrations
same,protection of mice in vivo,B16 melanoma,protects mice in vivo at very low concentrations
same,Total diameter (tumor + leg),"HT1080 tumors; Table 60, Day 2",8.3 mm
same,Total diameter (tumor + leg),"HT1080 tumors; Table 60, Day 5",7.1 mm
same,Total diameter (tumor + leg),"HT1080 tumors; Table 60, Day 7",7.6 mm
same,Total diameter (tumor + leg),"HT1080 tumors; Table 60, Day 9",7.4 mm
same,Total diameter (tumor + leg),"HT1080 tumors; Table 60, Day 12",7.0 mm
same,Total diameter (tumor + leg),"HT1080 tumors; Table 60, Day 14",7.1 mm
same,Total diameter (tumor + leg),"HT1080 tumors; Table 60, Day 16",7.4 mm
same,Total diameter (tumor + leg),"HT1080 tumors; Table 60, Day 19",8.4 mm
same,Total diameter (tumor + leg),"HT1080 tumors; Table 60, Day 21",8.6 mm
same,Total diameter (tumor + leg),"HT1080 tumors; Table 60, Day 23",10.0 mm
same,Total diameter (tumor + leg),"HT1080 tumors; Table 60, Day 27",10.9 mm
same,Total diameter (tumor + leg),"HT1080 tumors; Table 60, Day 30",13.2 mm
same,Total diameter (tumor + leg),"HT1080 tumors; Table 60, Day 33",14.3 mm
same,Total diameter (tumor + leg),"HT1080 tumors; Table 60, Day 35",15.2 mm
same,Total diameter (tumor + leg),"HT1080 tumors; Table 60, Day 37",15.8 mm
same,Total diameter (tumor + leg),"HT1080 tumors; Table 60, Day 40",16.6 mm
same,Total diameter (tumor + leg),"HT1080 tumors; Table 60, Day 42",18.0 mm
same,MTMD,[2],0.5 mg/kg
